# Measured values from patent publication US11389465B2, “Phosphorylated hexaacyl disaccharides (PHADs) for treating or preventing infections” (VANDERBILT UNIVERSITY, priority 2017, dated 2022).
# What was measured:
# [1] = system: tissue macrophages and neutrophils; test: MPLA modulation of tissue macrophages and neutrophils (FIG. 10); type: in vivo, mice
# Text: FIG. 10. MPLA induces resistance to infection via modulation of tissue macrophages and neutrophils. A-C) Total splenic A) macrophages, B) neutrophils, and C) monocytes 3 days after S. aureus inoculation or vehicle in MPLA- and vehicle-primed mice. D) Representative image of F4/80^+ immunohistochemical staining (brown) in kidney 3 days after S. aureus inoculation in MPLA- and vehicle-primed mice E) Optical density quantification of F4/80^+ staining in kidneys. F) Mice were primed with MPLA or vehicle via intraperitoneal injection and 24 hours later pHrodo tagged S. aureus bioparticles were injected into the peritoneal cavity. Peritoneal leukocytes were harvested 6 hours later and assessed for pHrodo MFI via flow cytometry. G) Mice were primed with MPLA or vehicle via intraperitoneal injection and 24 hours later leukocytes were harvested from the peritoneal cavity. Respiratory burst was elicited by 45 minutes of PMA stimulation and DHR 123 MFI of macrophages, neutrophils, and monocytes was assessed by flow cytometry. H) Mice were administered intravenous clodronate-liposomes 24 hours prior to the first MPLA administration. Mice were then inoculated with intravenous 10^8 cfu S. aureus. Kaplan-Meier survival plot after S. aureus infection (n=15 mice/group). I) Mice were administered intravenous anti-Ly6G antibody 24 hours prior to the first MPLA administration. Mice were then inoculated with intravenous 10^8 cfu S. aureus. Kaplan-Meier survival plot after S. aureus infection (n=10 mice/group). J) C57BL6 WT and CCR2^−/− mice were primed with MPLA or vehicle and inoculated with intravenous 10^8 cfu S. aureus. Kaplan-Meier survival plot after S. aureus infection (n=10 mice/group). K) WT C57BL6 and RAG2^−/− mice were injected with intravenous MPLA or vehicle prior to intravenous inoculation with 10^8 cfu S. aureus. Kaplan-Meier survival plot (n=10 mice/group). Data shown as mean+/−SEM. For Kaplan-Meier plots *, p<0.05 via log-rank Mantel-Cox test. Otherwise, *, p<0.05 as determined by ANOVA with Tukey's post-hoc multiple comparison test
# MPLA treatment increases macrophage, monocyte and neutrophil accumulation in the spleen (FIG. 10, A-C), increases macrophage accumulation in S. aureus abscesses (FIG. 10, D-E) and increases macrophage phagocytosis and respiratory burst functions (FIG. 10, F-G).
# [2] = system: C. albicans; test: Systemic (intravenous) C. albicans infection in MPLA-primed mice (FIG. 2); type: in vivo; details: MPLA 20 μg; intravenous C. albicans 1×10^8 CFU
# Experimental: (§1) FIG. 2. MPLA induces resistance to S. aureus and C. albicans infection. A) WT BALB/c mice were injected with intravenous MPLA (20 μg/mouse) or vehicle one and two days prior to intravenous inoculation with intravenous 10^8 cfu S. aureus or 10^8 cfu C. albicans. B) Kaplan Meier survival curve of vehicle- and MPLA-primed mice. (n=12 mice/group) after S. aureus inoculation. C) Core (rectal) body temperature assessed daily after S. aureus inoculation. D) S. aureus cfu per gram of tissue recoverable from whole spleen, lung, and kidney in vehicle and MPLA-primed mice at 3 days after S. aureus inoculation. E) Concentration of serum IL-6 2 hours after S. aureus inoculation or vehicle. F) Concentration of serum BUN 3 days after S. aureus inoculation or vehicle. G) Kaplan Meier survival curve of vehicle- and MPLA-primed mice. (n=12 mice/group) after intravenous 10^8 cfu C. albicans inoculation. H) Core (rectal) body temperature after C. albicans inoculation. Data shown as mean+/−SEM. For Kaplan-Meier plots *, p<0.05 via log-rank Mantel-Cox test. Otherwise, *, p<0.05 as determined by ANOVA with Tukey's post-hoc multiple comparison test.
# (§2) MPLA is also effective in improving survival in models of systemic S. aureus and C. albicans infection. Mice treated with MPLA (20 μg) after a 20% cutaneous burn received intravenous challenge with S. aureus or C. albicans (1×10^8 CFU) on day 5 post-burn (FIG. 2).
# [3] = system: S. aureus; test: Systemic (intravenous) S. aureus infection in MPLA-primed mice (FIG. 2); type: in vivo; details: MPLA 20 μg
# Experimental: as §1, §2
# [4] = infusion; not at lower doses; cited from earlier work
# [5] = system: Staphylococcus aureus; test: Systemic S. aureus infection after MPLA or PHADs (FIG. 8); type: in vivo, mice; details: 20 μg/mouse on day 0 and day 1; S. aureus 1×10^8 intravenously on day 2
# Experimental: FIG. 8. PHADs induce bacterial clearance and promote survival post systemic S. aureus infection. […] (B) In one set of experiments, mice were euthanized at 72 hours post-infection and lung, spleen, and kidney tissues were harvested to measure bacterial burden. (C) In a separate set of experiments, mice underwent the same treatment with MPLA or PHADs, followed by infection with S. aureus. However, this group is monitored for 14 days to assess for survival. *p<0.05 compared to vehicle. N=13-16/group in the 3 day clearance experiments, performed in quadruplicate, and n=9-10/group, performed in triplicate.
# In addition, mice were analyzed for survival after intravenous Staphylococcus aureus infection with treatment of MPLA or PHADs. At Day 0, mice were treated with vehicle, MPLA or PHADs (20 μg/mouse). At Day 1, mice were treated with vehicle, MPLA or PHADs (20 μg/mouse). At Day 2, mice were infected with Staphylococcus aureus (1×10^8 intravenously) and followed for survival.
# [6] = system: P. aeruginosa; details: 20 μg IP on 2 consecutive days, compared to vehicle
# [7] = in vivo; cited from earlier work
# [8] = system: Pseudomonas aeruginosa; test: Pseudomonas burn wound infection in mice, MPLA given before inoculation (FIG. 1); type: in vivo; details: MPLA 20 μg
# Experimental: FIG. 1. MPLA treatment improves host resistance to Pseudomonas burn wound infection. Mice exposed to a 20% full thickness burn wound were treated with MPLA on days 3 and 4 post-burn and were inoculated with 1×10^8 Pseudomonas aeruginosa in the caudad (area 3) portion of the burn wound. A. Wounds were excised 48 hours after inoculation, sectioned into 3 segments (areas 1-3) and homogenized. Bacterial colony forming units (cfu) were determined by culture on agar plates. B. At 4-6 days after infection, wound and lungs were harvested, homogenized and cultured to measure Pseudomonas cfu. C. Survival was determined after Pseudomonas infection. *p<0.05 compared to vehicle.
# Consequently, MPLA is currently employed by Glaxo Smith Kline as a component of the FDA-approved ASO4 vaccine adjuvant system (27, 28). […] It was also shown that total wound bacteria and dissemination of Pseudomonas from the burn wound to the lungs was diminished in mice treated with MPLA (FIG. 1B).
substance,measurement,setting,value
Monophosphoryl Lipid A [MPLA],"macrophage, monocyte and neutrophil accumulation in the spleen",[1]; 3 days after S. aureus inoculation,increases
same,beneficial effects of MPLA after depletion of macrophages or neutrophils,"[1]; clodronate-liposomes or anti-Ly6G, survival after S. aureus, not with cells of the adaptive immune system",ablates the beneficial effects of MPLA
same,macrophage phagocytosis and respiratory burst functions,"[1]; intraperitoneal priming, peritoneal leukocytes",increases
same,macrophage accumulation in S. aureus abscesses,"[1]; kidney, F4/80+ staining, 3 days after inoculation",increases
same,survival,[2],40%
same,infection-induced hypothermia,"[3]; FIG. 2 C-F, H",attenuated infection-induced hypothermia
same,kidney injury,"[3]; FIG. 2 C-F, H",less kidney injury
same,plasma cytokine concentrations,"[3]; FIG. 2 C-F, H",lower plasma cytokine concentrations
same,survival,[3]; intravenous S. aureus 1×10^8 CFU,90%
same,MPLA dose at which humans show subjective changes consistent with systemic inflammation,[4],0.01 mg/kg
same,survival,[5],improved survival
same,bacterial burden (peritoneal cavity),[6]; 6 hours after challenge,decreased bacterial burden
same,neutrophil and monocyte recruitment to the site of infection,[6]; 6 hours after challenge,markedly enhanced
same,infection-induced hypothermia,[6],attenuated infection-induced hypothermia
same,dose relative to LPS that can be administered to humans before adverse side effects occur,[7],"1000-10,000 times"
same,total wound bacteria and dissemination of Pseudomonas from the burn wound to the lungs,"[8]; 20% burn, 4-6 days after infection",diminished
same,survival,"[8]; 20% burn, Pseudomonas wound infection",One hundred
same,spread of bacteria within the burn wound (areas 1 and 2),"[8]; 20% cutaneous burn, wound inoculated in area 3",decreased spread of bacteria within the burn wound
